15 compounds from US10160747B2, “Compounds and methods for kinase modulation, and indications therefor” (Plexxikon Inc., priority 2016, dated 2018) can be followed below.

The target of test [1] is T1, c-KIT (Homo sapiens, UniProt P10721).
T1 construct: purchased Millipore 14-559K
The test can be described thus: c-KIT recombinant enzyme kinase assay (AlphaScreen). It counts as biochemical. The conditions noted are these: 100 ATP, 8 pt. The gist of the method: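 Substrate 30 nM biotin-GG(EEEEY)10EE; ATP 10 μM (FLT3-ITD, FLT3-D835Y) or 100 μM (c-KIT). Detection: AlphaScreen PY20 kit, 10 μg/mL beads, RT 20 + 60 min. Readout 580 nm; IC50.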

In test [2] the target is CSF1R (Homo sapiens, UniProt P07333). The experiment in a line: CSF1R 100 ATP 8 pt kinase assay (Table 6). Type of test: biochemical. The text has this:
The following Table 6 provides data indicating FLT3 ITD, D835Y and F691L; c-KIT and CSF1R biochemical and/or cell inhibitory activity for exemplary compounds as described herein.

The subject of test [3] is MOLM-14 D835Y (endogenous FLT3 ITD and transfected FLT3 D835Y). The test can be described thus: MOLM-14 D835Y cell proliferation assay (CellTiter-Glo). The conditions noted are these: Homo sapiens, MOLM-14, 72 h; 3 d growth, GMean. Type of test: cell-based. A digest of the protocol:
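MOLM-14 derivatives carrying D835Y or F691L, selected under escalating AC220, were seeded at 1×10^4 cells/well and exposed to an 8-point 1:3 compound series (1 to 0.00046 μM, 0.2% DMSO final) for three days at 37° C., 5% CO2. CellTiter-Glo luminescence (ATP content) versus concentration gave IC50.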
A general note: Cellular ATP, detected with luciferase, serves as a proxy for viable cell number.

Structures are written as SMILES.

T1 sequence (P10721 26-976): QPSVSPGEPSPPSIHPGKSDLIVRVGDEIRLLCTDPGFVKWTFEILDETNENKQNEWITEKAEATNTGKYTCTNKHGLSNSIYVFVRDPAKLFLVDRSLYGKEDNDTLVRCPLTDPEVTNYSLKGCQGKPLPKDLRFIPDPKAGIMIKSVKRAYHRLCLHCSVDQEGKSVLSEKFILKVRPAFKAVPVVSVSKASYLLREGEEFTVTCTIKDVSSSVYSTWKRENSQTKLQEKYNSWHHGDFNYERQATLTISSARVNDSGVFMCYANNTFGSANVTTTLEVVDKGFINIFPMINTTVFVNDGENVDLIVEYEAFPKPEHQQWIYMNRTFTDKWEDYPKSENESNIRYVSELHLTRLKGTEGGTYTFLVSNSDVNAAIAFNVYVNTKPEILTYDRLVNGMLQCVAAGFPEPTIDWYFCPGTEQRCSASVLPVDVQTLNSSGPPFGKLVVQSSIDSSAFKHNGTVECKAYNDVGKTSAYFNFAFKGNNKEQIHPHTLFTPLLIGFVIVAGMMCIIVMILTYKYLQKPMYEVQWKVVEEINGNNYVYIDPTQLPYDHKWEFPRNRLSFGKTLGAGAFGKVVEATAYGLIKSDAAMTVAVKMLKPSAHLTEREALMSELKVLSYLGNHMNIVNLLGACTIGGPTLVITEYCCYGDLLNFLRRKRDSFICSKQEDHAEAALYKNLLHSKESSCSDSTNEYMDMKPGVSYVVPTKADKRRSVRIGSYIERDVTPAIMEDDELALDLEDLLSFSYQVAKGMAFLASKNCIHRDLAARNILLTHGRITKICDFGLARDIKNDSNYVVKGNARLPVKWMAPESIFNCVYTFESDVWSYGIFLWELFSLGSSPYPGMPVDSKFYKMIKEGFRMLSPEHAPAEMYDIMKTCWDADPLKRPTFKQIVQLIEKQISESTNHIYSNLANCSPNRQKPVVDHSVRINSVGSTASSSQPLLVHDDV
Chain of CSF1R (P07333 20-972, species assumed): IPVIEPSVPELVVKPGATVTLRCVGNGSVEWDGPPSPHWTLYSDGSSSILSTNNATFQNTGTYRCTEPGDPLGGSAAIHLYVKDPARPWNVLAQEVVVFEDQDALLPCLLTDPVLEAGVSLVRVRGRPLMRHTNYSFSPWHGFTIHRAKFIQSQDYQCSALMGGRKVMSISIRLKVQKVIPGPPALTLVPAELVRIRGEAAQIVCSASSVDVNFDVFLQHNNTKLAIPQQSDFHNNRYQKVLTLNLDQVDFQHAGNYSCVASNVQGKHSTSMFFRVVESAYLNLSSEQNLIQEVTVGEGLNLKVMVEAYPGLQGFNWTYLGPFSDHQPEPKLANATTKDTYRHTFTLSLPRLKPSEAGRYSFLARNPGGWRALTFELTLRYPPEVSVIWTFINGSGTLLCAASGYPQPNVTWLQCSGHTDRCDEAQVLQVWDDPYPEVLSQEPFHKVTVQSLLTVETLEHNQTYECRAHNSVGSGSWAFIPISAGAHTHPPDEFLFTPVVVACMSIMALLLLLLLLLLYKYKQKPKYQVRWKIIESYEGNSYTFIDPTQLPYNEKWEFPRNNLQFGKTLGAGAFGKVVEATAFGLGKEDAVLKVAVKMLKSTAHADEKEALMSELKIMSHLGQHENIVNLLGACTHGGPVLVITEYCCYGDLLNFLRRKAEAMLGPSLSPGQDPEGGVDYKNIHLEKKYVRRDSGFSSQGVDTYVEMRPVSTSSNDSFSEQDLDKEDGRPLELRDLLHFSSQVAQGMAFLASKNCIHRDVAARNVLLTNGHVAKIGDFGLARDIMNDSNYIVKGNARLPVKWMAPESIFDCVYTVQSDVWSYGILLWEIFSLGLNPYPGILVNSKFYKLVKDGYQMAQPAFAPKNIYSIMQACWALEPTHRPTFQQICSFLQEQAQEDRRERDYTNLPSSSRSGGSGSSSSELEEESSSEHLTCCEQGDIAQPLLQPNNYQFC

Regarding `CCOc1n[nH]c2ncc(-c3ccc(CC(=O)Nc4cnc(OC)c(C(F)(F)F)c4)cc3)cc12` [Compound P-0213, 2-(4-(3-ethoxy-1H-pyrazolo[3,4-b]pyridin-5-yl)phenyl)-N-(6-methoxy-5-(trifluoromethyl)pyridin-3-yl)acetamide], the IC50 in test [1], in test [2] and in test [3] was 0.0001 to 10 µM throughout.

In the case of `COc1ncc(NC(=O)Cc2ccc(-c3cnc4[nH]nc(Cl)c4c3)cc2)cc1C(F)(F)F` [Compound P-0230, 2-[4-(3-chloro-1H-pyrazolo[3,4-b]pyridin-5-yl)phenyl]-N-[6-methoxy-5-(trifluoromethyl)-3-pyridyl]acetamide], the IC50 in test [1], in test [2] and in test [3] was 0.0001 to 10 µM each time.

In the case of `COc1ncc(NC(=O)Cc2ccc(-c3cnc4[nH]nc(N)c4c3)cc2)cc1C(F)(F)F` [Compound P-0216, 2-(4-(3-amino-1H-pyrazolo[3,4-b]pyridin-5-yl)phenyl)-N-(6-methoxy-5-(trifluoromethyl)pyridin-3-yl)acetamide], the IC50 in test [1], in test [2] and in test [3] was 0.0001 to 10 µM each time.

For `COc1ncc(NC(=O)Cc2ccc(-c3cnc4[nH]nc(OC)c4c3)cc2)cc1C(F)(F)F` [Compound P-0212, 2-[4-(3-methoxy-1H-pyrazolo[3,4-b]pyridin-5-yl)phenyl]-N-[6-methoxy-5-(trifluoromethyl)-3-pyridyl]acetamide], the IC50 in test [1], in test [2] and in test [3] was 0.0001 to 10 µM each time.

With `Cc1ncc(NC(=O)Cc2ccc(-c3cnc4[nH]c(C#CC(C)(C)O)cc4c3)cc2)cc1C(F)(F)F` [Compound P-0220, 2-[4-[2-(3-hydroxy-3-methyl-but-1-ynyl)-1H-pyrrolo[2,3-b]pyridin-5-yl]phenyl]-N-[6-methyl-5-(trifluoromethyl)-3-pyridyl]acetamide], the IC50 in test [1], in test [2] and in test [3] was 0.0001 to 10 µM each time.

Take `COc1ncc(NC(=O)Cc2ccc(-c3cnc4[nH]nc(NC(=O)C(F)(F)F)c4c3)cc2)cc1C(F)(F)F` [Compound P-0215, 2,2,2-trifluoro-N-[5-[4-[2-[[6-methoxy-5-(trifluoromethyl)-3-pyridyl]amino]-2-oxo-ethyl]phenyl]-1H-pyrazolo[3,4-b]pyridin-3-yl]acetamide]: the IC50 in test [1], in test [2] and in test [3] was 0.0001 to 10 µM throughout.

`CCOc1n[nH]c2ncc(-c3ccc(CC(=O)Nc4cnc(C)c(C(F)(F)F)c4)cc3)cc12` [Compound P-0217, 2-[4-(3-ethoxy-1H-pyrazolo[3,4-b]pyridin-5-yl)phenyl]-N-[6-methyl-5-(trifluoromethyl)-3-pyridyl]acetamide]: the concentration for half-maximal inhibition (IC50) in test [1], in test [2] and in test [3] was 0.0001 to 10 µM in each case.

Regarding `COc1n[nH]c2ncc(-c3ccc(CC(=O)Nc4cnc(C)c(C(F)(F)F)c4)cc3)cc12` [Compound P-0218, 2-[4-(3-methoxy-1H-pyrazolo[3,4-b]pyridin-5-yl)phenyl]-N-[6-methyl-5-(trifluoromethyl)-3-pyridyl]acetamide], the IC50 in test [1], in test [2] and in test [3] was 0.0001 to 10 µM in each case.

`Cn1cc(Nc2ncc(-c3ccc(CC(=O)Nc4cncc(C(F)(F)F)c4)cc3F)cn2)cn1` [Compound P-0205, 2-[3-fluoro-4-[2-[(1-methylpyrazol-4-yl)amino]pyrimidin-5-yl]phenyl]-N-[5-(trifluoromethyl)-3-pyridyl]acetamide]: the IC50 in test [1] and in test [3] was 0.0001 to 10 µM in each case.

For the compound `COc1ncc(NC(=O)Cc2ccc(-c3cnc4[nH]c(C#CC(C)(C)O)cc4c3)cc2)cc1C(F)(F)F` [Compound P-0214, 2-(4-(2-(3-hydroxy-3-methylbut-1-yn-1-yl)-1H-pyrrolo[2,3-b]pyridin-5-yl)phenyl)-N-(6-methoxy-5-(trifluoromethyl)pyridin-3-yl)acetamide], the IC50 in test [1] and in test [3] was 0.0001 to 10 µM each time.

For the compound `Cc1ncc(NC(=O)Cc2ccc(-c3cnc(Nc4cnn(C5CC5)c4)nc3)cc2F)cc1C(F)(F)F` [Compound P-0239, 2-[4-[2-[(1-cyclopropylpyrazol-4-yl)amino]pyrimidin-5-yl]-2-fluoro-phenyl]-N-[6-methyl-5-(trifluoromethyl)-3-pyridyl]acetamide], the IC50 in test [1] and in test [3] was 0.0001 to 10 µM each time.

In the case of `O=C(Cc1cc(F)c(-c2cnc(Nc3cnn(C(F)F)c3)nc2)cc1F)Nc1cc(C(F)(F)F)ccn1` [Compound P-0021, 2-[4-[2-[[1-(difluoromethyl)pyrazol-4-yl]amino]pyrimidin-5-yl]-2,5-difluoro-phenyl]-N-[4-(trifluoromethyl)-2-pyridyl]acetamide], the IC50 in test [1] and in test [3] was 0.0001 to 10 µM each time.

Consider `COc1ncc(NC(=O)Cc2ccc(-c3cnc(Nc4cnn(C(F)F)c4)nc3)cc2)cc1C(F)(F)F` [Compound P-0211, 2-[4-[2-[[1-(difluoromethyl)pyrazol-4-yl]amino]pyrimidin-5-yl]phenyl]-N-[6-methoxy-5-(trifluoromethyl)-3-pyridyl]acetamide], for which the IC50 in test [1] and in test [3] was 0.0001 to 10 µM throughout.

On to `CCn1cc(Nc2ncc(-c3ccc(CC(=O)Nc4ccc(C(F)(F)F)nc4)cc3)cn2)cn1` [Compound P-0252, 2-[4-[2-[(1-ethylpyrazol-4-yl)amino]pyrimidin-5-yl]phenyl]-N-[6-(trifluoromethyl)-3-pyridyl]acetamide], for which the IC50 in test [1] and in test [3] was 0.0001 to 10 µM each time.

As to `COCCn1cc(Nc2ncc(-c3ccc(CC(=O)Nc4cnc(Cl)c(C(F)(F)F)c4)c(F)c3)cn2)cn1` [Compound P-0266, N-[6-chloro-5-(trifluoromethyl)-3-pyridyl]-2-[2-fluoro-4-[2-[[1-(2-methoxyethyl)pyrazol-4-yl]amino]pyrimidin-5-yl]phenyl]acetamide], the IC50 in test [1] and in test [3] was 0.0001 to 10 µM throughout.

For orientation: IC50 means the concentration that inhibits the measured activity by half.
